No end group written: not given here.
Tests used:
[1] = system: CDK/Cyclins in A549 cells; test: Live-cell ratiometric quantification of CDKSENS-Cy3/Ctrl-Cy5 fluorescence; format: cell-based
Protocol: (§1) Cell culture media, serum and antibiotics were purchased from Invitrogen. HeLa, HS68, A549, MCF-7 and U2OS cells were obtained from ATCC and were cultured in Dulbecco's Modified Eagle Medium (DMEM)+Glutamax supplemented with 10% Fetal Calf Serum (FCS), 1 mM penicillin and 1 mM streptomycin at 37°C in an atmosphere containing 5% CO2. HT2-19 cells, provided by Dr. A.Porter, were cultured in DMEM supplemented with non essential amino acids, antibiotics, sodium pyruvate, glutamine, and 10% FCS and grown with 50 uM isopropyl-thiogalactoside (IPTG) for maximal induction of CDK1 [28]. Cell extracts were prepared in lysis buffer containing 50 mM TrisHCl, pH 7.4, 150 mM NaCl, 0.1% NP40, 0.1% Deoxycholate, 2 mM EDTA, 1 mM phenylmethlsulfonyl fluoride (PMSF), CompleteTM protease inhibitors (Roche), 50 mM NaF, 40 mM β-Glycero-phosphate, 1 mM Na3VO4 and normalized following spectrophotometric dosage at 280 nm. […] Samples were then processed for SDS-PAGE and CDK, Cyclin retention was detected by Western blotting.
(§2) For fixed observations, cells were treated for 20 minutes with paraformaldehyde, nuclei were stained with Hoechst 33342 (Sigma), and cells were mounted with Prolong Gold AntiFade Reagent (Invitrogen). Epifluorescence images were acquired on a Leica DM6000 microscope (Leica Microsystems) piloted by the Metamorph software (Universal Imaging). For colocalization experiments, images were acquired on a Zeiss axioplan2/LSM510 META confocal microscope. Live-cell imaging was performed on a Zeiss Axiovert 200 M piloted by the Metamorph software. Images were processed with ImageJ software.
(§3) CDKSENS-Cy3 and Ctrl-Cy5 were complexed individually with CADY2 and codelivered into cells. Live-cell imaging acquisitions were substracted for background signal corresponding to minimal fluorescence levels using Metamorph. Image J was then used for image analysis. Regions of interest (ROI) corresponding to 10–15 cells in which fluorescence appeared homogeneous were designed and the mean grey levels of fluorescence for each channel (Cy3 and Cy5) were quantified within these ROIs. For each experiment, and the mean ratiometric value of CDKSENS-Cy3/Ctrl-Cy5 was calculated from 3–4 different ROIs. Each experiment was performed 3–4 times to assess the robustness of the quantification strategy. All statistical analyses are presented by the mean and standard deviation.

[2] = system: CDK/Cyclins in HT2-19 cells; test: as above; format: cell-based; details: for Mean Ratio CDKSENS-Cy3/Ctrl-Cy5: mean +/- SD of 3 fields
Protocol: as §1, §2, §3

[3] = system: CDK/Cyclins in HeLa cells; test: as above; format: cell-based
Protocol: as §1, §2, §3

[4] = system: CDK/Cyclins in MCF7 cells; test: as above; format: cell-based
Protocol: as §1, §2, §3

[5] = system: CDK/Cyclins in U20S cells; test: as above; format: cell-based
Protocol: as §1, §2, §3

[6] = system: CDK/Cyclins in HS68 cells; test: as above; format: cell-based, human
Protocol: as §1, with “[28].” for “[28]. Cell extracts were prepared in lysis buffer containing 50 mM TrisHCl, pH 7.4, 150 mM NaCl, 0.1% NP40, 0.1% Deoxycholate, 2 mM EDTA, 1 mM phenylmethlsulfonyl fluoride (PMSF), CompleteTM protease inhibitors (Roche), 50 mM NaF, 40 mM β-Glycero-phosphate, 1 mM Na3VO4 and normalized following spectrophotometric dosage at 280 nm.”, “blotting. […]” for “blotting.”
as §3, with “Image J was then used for image analysis.” left out, “All statistical analyses are presented by the mean and standard deviation.” left out

[7] = system: CDK1, CDK2, Cyclin A, Cyclin B or Cyclin E in HeLa cells; test: Subcellular colocalization by indirect immunofluorescence and confocal microscopy; format: cell-based; details: delivered with CADY2, fixed cells, confocal microscopy
Protocol: Antibodies against Cyclin A (H432, sc-751), Cyclin B1 (GNS1, sc-245), Cyclin D1 (C20, sc-717), Cdk1 (C19, sc-954) Cdk2 (M2, sc-163), and Cdk4 (C22, sc-260) were purchased from Tebu-Bio (Santa-Cruz), anti-actin from Sigma (A2668), and used at 1∶1000 dilution for Western blotting, except for anti-cyclin B1 at 1∶500 dilution, 1∶100 for indirect imunofluorescence. Secondary antibodies labelled with Alexa-488 were used for indirect immunofluorescence.
as §2

CDKSENS-Cy3: CDKSENS labelled with cyanine probe Cy3 (C(Cy3 maleimide)DKSENS)
Mean Ratio CDKSENS-Cy3/Ctrl-Cy5 ([1]; A549, mean +/- SD of 3 fields): 5,44+/−0,16 | Relative Mean Ratiometric Value ([1]; A549, normalized to HeLa mean): 0.81+/−0,024 | decrease of CDKSENS-Cy3/Ctrl-Cy5 values, A549 vs HeLa ([1]; A549 compared to HeLa, range stated jointly for A549 and MCF7): 18–20% | decrease of CDKSENS-Cy3/Ctrl-Cy5 ratio without IPTG ([2]; HT2-19, 4 days without IPTG vs 50 uM IPTG): 20% | Mean Ratio CDKSENS-Cy3/Ctrl-Cy5 ([2]; HT219+IPTG): 5,37+/−0,18 | Relative Mean Ratiometric Value ([2]; HT219+IPTG, normalized to highest mean): 1+/−0,033 | Mean Ratio CDKSENS-Cy3/Ctrl-Cy5 ([2]; HT219 WO IPTG): 4,36+/−0,21 | Mean Ratio CDKSENS-Cy3/Ctrl-Cy5 ([3]; HeLa (A549 experiment), mean +/- SD of 3 fields): 6,72+/−0,37 | Relative Mean Ratiometric Value ([3]; HeLa (A549 experiment), normalized to highest mean): 1+/−0,054 | Relative Mean Ratiometric Value ([3]; HeLa (HS68 experiment), normalized to highest mean): 1+/−0,039 | Mean Ratio CDKSENS-Cy3/Ctrl-Cy5 ([3]; HeLa (MCF7 experiment), mean +/- SD of 4 fields): 7,29+/−0,39 | Relative Mean Ratiometric Value ([3]; HeLa (MCF7 experiment), normalized to highest mean): 1+/−0,053 | Relative Mean Ratiometric Value ([3]; HeLa (U20S experiment), HeLa set to 1): 1+/−0,079 | Mean Ratio CDKSENS-Cy3/Ctrl-Cy5 ([3]; HeLa (U20S experiment), mean +/- SD of 4 fields): 6,79+/−0,53 | Mean Ratio CDKSENS-Cy3/Ctrl-Cy5 ([4]; MCF7, mean +/- SD of 4 fields): 5,99+/−0,33 | Relative Mean Ratiometric Value ([4]; MCF7, normalized to HeLa mean): 0.82+/−0,046 | decrease of CDKSENS-Cy3/Ctrl-Cy5 values, MCF7 vs HeLa ([4]; MCF7 compared to HeLa, range stated jointly for A549 and MCF7): 18–20% | difference in CDKSENS-Cy3/Ctrl-Cy5 ratio, U20S vs HeLa ([5]; U20S compared to HeLa): did not reveal a significant difference | Mean Ratio CDKSENS-Cy3/Ctrl-Cy5 ([5]; U20S, mean +/- SD of 4 fields): 7,16+/−0,65 | Relative Mean Ratiometric Value ([6]; HS68, normalized to HeLa mean): 0.85+/−0,048 | average difference in CDKSENS-Cy3/Ctrl-Cy5 ratio, HeLa greater than HS68 ([6]; HeLa vs HS68, average): 15% | colocalization with CDKs and cyclins [7]: did not reveal significant lack of colocalization
